Measurements reported in patent US9868737B2, “Pyridino[1,2-A]pyrimidone analogue used as MTOR/P13K inhibitor” (CISEN PHARMACEUTICAL CO., LTD., priority 2014, dated 2018).
Like-named read-outs stand apart in the source and are kept apart here.

Test system: MCF-7 cells
Test: In vitro test of cell activity (MCF-7 cells, insulin stimulation, ELISA-One fluorescence)
Type: cell-based
Conditions: Homo sapiens, MCF7, MCF-7 cells; for inhibition at 0.5 µM: conc. 0.5 μM; for inhibition at 1 µM: conc. 1 μM; for inhibition at 0.25 µM: conc. 0.25 μM
Procedure: Example In Vitro Tests of Cell Activities Experimental Steps and Methods:
1) MCF-7 cells were inoculated at the density of 2.5×10^4 cells/well into 96-well plates (the culture medium used should be a complete culture medium containing 10% FBS).
2) On the next day, the medium in each well was drawn out. A certain concentration (preliminary screening) or a series of concentration (IC50 test) of compounds were dissolved in a culture medium without serum and added to the 96-well plates to culture cells for 2 hours.
3) Insulin was dissolved in a culture medium without serum, added to the cultured cells and incubated for 30 minutes, wherein the final concentration of insulin was […].
4) A lysis solution was prepared according to the following method during the waiting period for the reaction:
a) Enhancer solution was removed from the refrigerator to melt in advance.
b) Enhancer solution was diluted 10 times with the 5× Lysis Buffer to give a concentrated lysis solution.
c) The concentrated lysis solution was diluted 5 times with double distilled water to give the lysis solution.
5) The medium in each well was completely removed and each well was quickly rinsed with PBS once.
6) 150 μl of the freshly prepared lysis solution was added to each well and shaked at room temperature for 10 minutes.
7) After confirming that all cells were detached, the lysis solution together with the cell fragments was transferred into a 1.5 ml tube.
8) The tube was shaked on vortes mixer to make the lysis solution and cells mix completely and then the mixture was centrifugated at 4° C. under 12000 g for 10 minutes.
9) The number of strips of ELISA-one micro-well plate that is required was calculated. The needless strips were removed from the frame, put back into the storage bag and sealed. Before the strips of micro-well plate were used, 200 μl of double distilled water was used to rinse each well to remove preservative.
10) 50 μl of antibody mixture was added to each well. (The antibody mixture solution was prepared by mixing the medium antibody reagent and the enzyme labeled antibody reagent with an equal proportion. The preparation of antibody mixture didn't need vortex.)
11) 25 μl of cell lysates was added to each well of ELISA-One micro-well plate. The micro-well plate was covered with adhesive sealing film and incubated on a micro-well plate oscillation instrument at room temperature for 1 hour.
12) Each well was rinsed with 150 μl of 1× rinsing buffer 3 times. After the last rinsing, the rinsing buffer in the well was completely removed. If necessary, the 1× rinsing buffer could be allowed to stay in the micro-well plate for up to 30 minutes so that the substrate mixed solution could be prepared during such time period.
13) The substrate mixed solution should be prepared just before each use, 10 μl of the substrate mixed solution was added to each well and the micro-well plate was sealed with tin-foil and incubated on the micro-well plate oscillation instrument at room temperature for 10 minutes.
14) 10 μl of stop solution was added to each well and mixed slightly (5-10 seconds) on the micro-well plate oscillation instrument.
15) The corresponding ELISA-One filter group was assembled and used to read the fluorescence signal intensity.

IC50 (read-out: IC50 p-AKT) [nM] | IC50 (read-out: IC50 p-p70S6K) [nM] | Structure (SMILES) | inhibition at 0.5 µM (read-out: % inhibition AKT) [%] | inhibition at 0.5 µM (read-out: % inhibition p70s6k) [%] | other results
≤ 50 | – | COc1ncc(-c2ccc3ncc(OCCOC4CC4)c(=O)n3c2)cc1NS(=O)(=O)c1sc(C)nc1C [compound 204] | – | – | –
≤ 50 | – | COc1ncc(-c2ccc3ncc(OCCOCC(F)(F)F)c(=O)n3c2)cc1NS(=O)(=O)c1sc(C)nc1C [compound 202] | – | – | –
≤ 50 | – | COc1ncc(-c2ccc3ncc(Cl)c(=O)n3c2)cc1NS(=O)(=O)c1nc(N)sc1C [compound 170] | – | – | –
50 to 100 | – | COc1ncc(-c2ccc3ncc(OC)c(=O)n3c2)cc1NS(=O)(=O)c1sccc1C [compound 110] | – | – | –
≤ 50 | – | COc1ncc(-c2ccc3ncc(OC4COC4)c(=O)n3c2)cc1NS(=O)(=O)c1sc(C)nc1C [compound 203] | – | – | –
≤ 50 | – | COCCOc1cnc2ccc(-c3cnc(OC)c(NS(=O)(=O)c4sc(N(C)C)nc4C)c3)cn2c1=O [compound 193] | – | – | –
50 to 100 | > 250 | COc1ncc(-c2ccc3ncc(Cl)c(=O)n3c2)cc1NS(=O)(=O)c1cnc(N)s1 [compound 161] | – | – | inhibition at 0.25 µM (read-out: % inhibition AKT): 79.5%; inhibition at 0.25 µM (read-out: % inhibition p70s6k): 41%
≤ 50 | – | COc1ncc(-c2ccc3ncc(OCC4CCOCC4)c(=O)n3c2)cc1NS(=O)(=O)c1sc(C)nc1C [compound 198] | – | – | –
> 250 | – | COCCOc1cnc2ccc(-c3cnc(OC)c(NS(=O)(=O)c4sccc4C)c3)cn2c1=O [compound 182] | – | – | –
≤ 50 | 50 to 100 | COc1ncc(-c2ccc3ncc(Cl)c(=O)n3c2)cc1NS(=O)(=O)c1ccc(F)cc1C [compound 134] | 94.9 | 87.7 | –
≤ 50 | – | COc1ncc(-c2ccc3ncc(N)c(=O)n3c2)cc1NS(=O)(=O)c1sccc1C [compound 92] | – | – | –
≤ 50 | – | CCOCCOc1cnc2ccc(-c3cnc(OC)c(NS(=O)(=O)c4sc(C)nc4C)c3)cn2c1=O [compound 199] | – | – | –
≤ 50 | – | COc1ncc(-c2ccc3ncc(OCCO)c(=O)n3c2)cc1NS(=O)(=O)c1sc(C)nc1C [compound 180] | – | – | –
≤ 50 | – | COc1ncc(-c2ccc3ncc(OCC4COC4)c(=O)n3c2)cc1NS(=O)(=O)c1sc(C)nc1C [compound 185] | – | – | –
≤ 50 | ≤ 50 | COc1ncc(-c2ccc3ncc(Cl)c(=O)n3c2)cc1NS(=O)(=O)c1ccc(C)cc1Cl [compound 152] | – | – | inhibition at 0.25 µM (read-out: % inhibition AKT): 94%; inhibition at 0.25 µM (read-out: % inhibition p70s6k): 83.9%
100 to 250 | 50 to 100 | COc1ncc(-c2ccc3ncc(Cl)c(=O)n3c2)cc1NS(=O)(=O)c1cnc(C)n1C [compound 154] | – | – | inhibition at 0.25 µM (read-out: % inhibition AKT): 85.4%; inhibition at 0.25 µM (read-out: % inhibition p70s6k): 92.6%
≤ 50 | ≤ 50 | COc1ncc(-c2ccc3ncc(OC)c(=O)n3c2)cc1NS(=O)(=O)c1ccc(Cl)s1 [compound 108] | – | – | inhibition at 0.25 µM (read-out: % inhibition AKT): 92.4%; inhibition at 0.25 µM (read-out: % inhibition p70s6k): 82.5%
50 to 100 | 100 to 250 | COc1ncc(-c2ccc3ncc(Cl)c(=O)n3c2)cc1NS(=O)(=O)c1cnc(C)s1 [compound 156] | – | – | inhibition at 0.25 µM (read-out: % inhibition AKT): 77.9%; inhibition at 0.25 µM (read-out: % inhibition p70s6k): 74.1%
≤ 50 | – | COc1ncc(-c2ccc3ncc(OCC(C)(C)OC)c(=O)n3c2)cc1NS(=O)(=O)c1sc(C)nc1C [compound 209] | – | – | –

The next lines start with the compound.

Structure (SMILES) | IC50 (read-out: IC50 p-AKT) [nM] | IC50 (read-out: IC50 p-p70S6K) [nM] | inhibition at 0.5 µM (read-out: % inhibition AKT) [%] | inhibition at 0.5 µM (read-out: % inhibition p70s6k) [%] | other results
COc1ncc(-c2ccc3ncc(Cl)c(=O)n3c2)cc1NS(=O)(=O)c1cc(F)ccc1F [compound 139] | ≤ 50 | 50 to 100 | 93.7 | 88.5 | –
COc1ncc(-c2ccc3ncc(F)c(=O)n3c2)cc1NS(=O)(=O)c1ccc(C#N)cc1 [compound 70] | 50 to 100 | 50 to 100 | 75.4 | 99 | –
CCc1ncc(-c2ccc3nccc(=O)n3c2)cc1NS(=O)(=O)c1ccccc1F [compound 17] | – | – | – | – | inhibition at 1 µM (read-out: % inhibition AKT): 81.1%; inhibition at 1 µM (read-out: % inhibition p70s6k): 34.1%
COc1ncc(-c2cn3c(=O)ccnc3cn2)cc1NS(=O)(=O)c1ccc(C)nc1 [compound 45] | – | – | 15.2 | -1 | –
COc1ncc(-c2cn3c(=O)ccnc3cc2C)cc1NS(=O)(=O)c1ccccc1Cl [compound 122] | – | – | -26.6 | 1.2 | –
Cc1ncc(-c2ccc3nccc(=O)n3c2)cc1NS(=O)(=O)c1ccc(F)cc1F [compound 7] | – | – | – | – | inhibition at 1 µM (read-out: % inhibition AKT): 81.3%; inhibition at 1 µM (read-out: % inhibition p70s6k): 50.1%
COc1ncc(-c2cn3c(=O)ccnc3cc2F)cc1NS(=O)(=O)c1ccc(F)cc1Cl [compound 117] | – | – | 63.7 | 16.6 | –
COc1ncc(-c2ccc3ncc(F)c(=O)n3c2)cc1NS(=O)(=O)c1cccc(F)c1 [compound 67] | ≤ 50 | ≤ 50 | 85.8 | 89.7 | –
COc1ncc(-c2ccc3ncc(F)c(=O)n3c2)cc1NS(=O)(=O)c1ccc(C(F)(F)F)cc1 [compound 69] | ≤ 50 | 50 to 100 | 85.4 | 87.6 | –
COc1ncc(-c2cn3c(=O)ccnc3cc2C)cc1NS(=O)(=O)c1ccc(F)cc1Cl [compound 128] | – | – | -1.1 | 0.4 | –
COc1ncc(-c2cn3c(=O)ccnc3cc2C)cc1NS(=O)(=O)c1ccc(F)cc1F [compound 121, 2,4-difluoro-N-(2-methoxy-5-(8-methyl-4-oxo-4H-pyrido[1,2-a]pyrimidin-7-yl)pyridin-3-yl)benzsulfamide] | – | – | -27.1 | -2.2 | –
COc1ncc(-c2ccc3nccc(=O)n3c2)cc1NS(=O)(=O)CC(F)(F)F [compound 13] | – | – | – | – | inhibition at 1 µM (read-out: % inhibition AKT): 78.3%; inhibition at 1 µM (read-out: % inhibition p70s6k): 53%
CCOc1ncc(-c2ccc3nccc(=O)n3c2)cc1NS(=O)(=O)c1ccc(F)cc1F [compound 15] | – | – | – | – | inhibition at 1 µM (read-out: % inhibition AKT): 93.3%; inhibition at 1 µM (read-out: % inhibition p70s6k): 91.7%
COc1ncc(-c2ccc3ncc(Cl)c(=O)n3c2)cc1NS(=O)(=O)c1ncccc1Cl [compound 159] | 100 to 250 | 100 to 250 | – | – | inhibition at 0.25 µM (read-out: % inhibition AKT): 68.6%; inhibition at 0.25 µM (read-out: % inhibition p70s6k): 84.8%
COc1ncc(-c2ccc3nccc(=O)n3c2)cc1CS(=O)(=O)c1ccc(F)cc1F [compound 5] | – | – | – | – | inhibition at 1 µM (read-out: % inhibition AKT): 26%; inhibition at 1 µM (read-out: % inhibition p70s6k): 12.3%
COc1ncc(-c2ccc3ncc(F)c(=O)n3c2)cc1NS(=O)(=O)c1c(F)cccc1F [compound 68] | ≤ 50 | 50 to 100 | 88 | 90.3 | –
COc1ncc(-c2ccc3nccc(=O)n3n2)cc1NS(=O)(=O)c1cc(F)ccc1F [compound 76] | – | – | 54.3 | 12.2 | –
COc1ncc(-c2ccc3nccc(=O)n3n2)cc1NS(=O)(=O)c1ccc(C(F)(F)F)cc1 [compound 80] | – | – | 54.6 | 14.4 | –
COc1ncc(-c2ccc3ncc(-n4ccc(C)n4)c(=O)n3c2)cc1NS(=O)(=O)c1ccc(Cl)s1 [compound 217] | – | – | – | – | inhibition at 0.25 µM (read-out: % inhibition AKT): 54%; inhibition at 0.25 µM (read-out: % inhibition p70s6k): 67.7%
COc1ncc(-c2cn3c(=O)ccnc3cc2F)cc1NS(=O)(=O)c1cccc(F)c1 [compound 115] | – | – | 43.6 | 6.5 | –
COc1ncc(-c2ccc3ncc(N)c(=O)n3c2)cc1NS(=O)(=O)c1ccccc1Cl [compound 91] | ≤ 50 | 50 to 100 | 94.6 | 89.2 | –
O=c1ccnc2ccc(-c3cnc(Cl)c(NS(=O)(=O)N4CCOCC4)c3)cn12 [compound 31] | – | – | – | – | inhibition at 1 µM (read-out: % inhibition AKT): 67.8%; inhibition at 1 µM (read-out: % inhibition p70s6k): 45.5%
CCOc1cnc2ccc(-c3cnc(OC)c(NS(=O)(=O)c4ccccc4Cl)c3)cn2c1=O [compound 173] | – | – | – | – | inhibition at 0.25 µM (read-out: % inhibition AKT): 88.9%; inhibition at 0.25 µM (read-out: % inhibition p70s6k): 82.6%
COc1ncc(-c2cn3c(=O)ccnc3cn2)cc1NS(=O)(=O)c1cc(F)cc(F)c1 [compound 40] | – | – | 18.1 | 13.7 | –
COc1ncc(-c2ccc3ncc(Cl)c(=O)n3c2)cc1NS(=O)(=O)c1cnc(Cl)s1 [compound 160] | – | – | – | – | inhibition at 0.25 µM (read-out: % inhibition AKT): 61.9%; inhibition at 0.25 µM (read-out: % inhibition p70s6k): 71.6%
COc1ncc(-c2ccc3nccc(=O)n3c2)cc1NS(=O)(=O)c1cc(F)ccc1F [compound 4] | ≤ 50 | 100 to 250 | – | – | inhibition at 1 µM (read-out: % inhibition AKT): 95.6%; inhibition at 1 µM (read-out: % inhibition p70s6k): 50.8%
